Test results published in ChEMBL document CHEMBL1147820, “Enhanced pharmacokinetic properties of 1,4-benzodiazepine-2,5-dione antagonists of the HDM2-p53 protein-protein interaction through structure-based drug design” (Bioorg Med Chem Lett, 2006).

Assays:
[1] = Half life in mouse at 5 mg/kg, iv; assay type: ADME, organism-based; parameters: dose 5 mg/kg, route intravenous; details: in vivo
[2] = Clearance in mouse at 5 mg/kg, iv; assay type: ADME, organism-based; parameters: dose 5 mg/kg, route intravenous; details: in vivo
[3] = Volume of distribution in mouse at 5 mg/kg, iv; assay type: ADME, organism-based; parameters: dose 5 mg/kg, route intravenous; details: in vivo, read-out: Vdss
[4] = Cmax in mouse at 40 mg/kg, po; assay type: ADME, organism-based; parameters: dose 40 mg/kg, route oral; details: in vivo
[5] = Tmax in mouse at 40 mg/kg, po; assay type: ADME, organism-based; parameters: dose 40 mg/kg, route oral; details: in vivo
[6] = Half life in mouse at 40 mg/kg, po; assay type: ADME, organism-based; parameters: dose 40 mg/kg, route oral; details: in vivo
[7] = Bioavailability in mouse; assay type: ADME, organism-based; details: in vivo
in vitro [8] = details: human, Caco-2
in vitro [9] = details: human, Caco-2; remark: listed apart in the source

half-life [1]	clearance [2]	Vd [3]	Cmax [4]	Tmax [5]	half-life [6]	bioavailability [7]	Papp A→B (in vitro [8])	Papp B→A (in vitro [9])	SMILES
3.1 h	13.2 mL/min/kg	3 L/kg	6.3 µM	6 h	2.5 h	100%	7.34 ×10⁻⁶ cm/s	13 ×10⁻⁶ cm/s	C[C@H](c1ccc(Cl)cc1)N1C(=O)c2cc(I)ccc2N(CCCCC(=O)O)C(=O)[C@@H]1c1ccc(Cl)cc1
–	–	–	–	–	–	–	19.9 ×10⁻⁶ cm/s	9.1 ×10⁻⁶ cm/s	CC#Cc1ccc2c(c1)C(=O)N([C@H](C)c1ccc(Cl)cc1)[C@@H](c1ccc(Cl)cc1)C(=O)N2CCCCC(=O)O
–	–	–	–	–	–	–	20.9 ×10⁻⁶ cm/s	16.1 ×10⁻⁶ cm/s	C#Cc1ccc2c(c1)C(=O)N([C@H](C)c1ccc(Cl)cc1)[C@@H](c1ccc(Cl)cc1)C(=O)N2CCCCC(=O)O
